Measurements published in ChEMBL document CHEMBL6127078, “Discovery of 7-(1-methyl-1H-pyrazol-4-yl)-1,6-naphthyridine derivatives as potent inhibitors of rearranged during transfection (RET) and RET solvent-front mutants for overcoming selpercatinib resistance” (Eur J Med Chem, 2024).

Experiments:
[1] = target: Proto-oncogene tyrosine-protein kinase receptor Ret (Homo sapiens, UniProt P07949, V804L); assay: Inhibition of RET V804L mutant (unknown origin) by FRET-based ZLyte kinase assay
[2] = target: Proto-oncogene tyrosine-protein kinase receptor Ret (Homo sapiens, UniProt P07949, G810R); assay: Inhibition of RET G810R mutant (unknown origin) by FRET-based ZLyte kinase assay
Sequence of Proto-oncogene tyrosine-protein kinase receptor Ret (Homo sapiens, UniProt P07949, G810R) (P07949 29-1114 G810R limits assumed): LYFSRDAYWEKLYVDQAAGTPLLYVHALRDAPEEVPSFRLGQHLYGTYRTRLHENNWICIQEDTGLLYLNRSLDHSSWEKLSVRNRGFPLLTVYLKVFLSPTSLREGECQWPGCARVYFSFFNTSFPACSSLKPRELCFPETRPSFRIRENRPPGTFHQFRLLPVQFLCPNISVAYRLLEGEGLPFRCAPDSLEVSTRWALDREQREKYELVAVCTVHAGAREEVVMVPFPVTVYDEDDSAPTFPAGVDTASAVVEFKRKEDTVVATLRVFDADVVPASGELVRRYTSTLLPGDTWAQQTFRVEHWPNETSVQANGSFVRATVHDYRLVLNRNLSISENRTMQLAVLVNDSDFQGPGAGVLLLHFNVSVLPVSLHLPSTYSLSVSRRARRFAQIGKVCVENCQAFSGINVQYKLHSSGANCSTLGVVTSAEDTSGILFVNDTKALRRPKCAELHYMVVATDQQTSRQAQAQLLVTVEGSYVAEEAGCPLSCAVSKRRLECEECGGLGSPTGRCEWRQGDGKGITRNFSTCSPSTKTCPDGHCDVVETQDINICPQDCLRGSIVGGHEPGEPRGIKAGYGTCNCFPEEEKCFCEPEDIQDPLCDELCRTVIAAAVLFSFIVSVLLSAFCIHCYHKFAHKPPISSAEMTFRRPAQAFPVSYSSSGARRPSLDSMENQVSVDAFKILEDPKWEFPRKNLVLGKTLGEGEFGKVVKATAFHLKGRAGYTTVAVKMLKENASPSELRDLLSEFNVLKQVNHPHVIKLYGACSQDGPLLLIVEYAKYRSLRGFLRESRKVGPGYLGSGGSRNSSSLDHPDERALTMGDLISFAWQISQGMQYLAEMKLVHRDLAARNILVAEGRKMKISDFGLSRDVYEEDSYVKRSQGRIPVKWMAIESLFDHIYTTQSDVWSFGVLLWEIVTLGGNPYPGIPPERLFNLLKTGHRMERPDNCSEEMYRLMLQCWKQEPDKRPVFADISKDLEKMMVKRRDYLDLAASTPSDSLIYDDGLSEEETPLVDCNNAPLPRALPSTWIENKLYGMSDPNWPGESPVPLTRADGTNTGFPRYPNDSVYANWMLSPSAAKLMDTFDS

[3] = target: Proto-oncogene tyrosine-protein kinase receptor Ret (Homo sapiens, UniProt P07949, M918T); assay: Inhibition of RET M918T mutant (unknown origin) by FRET-based ZLyte kinase assay
Sequence of Proto-oncogene tyrosine-protein kinase receptor Ret (Homo sapiens, UniProt P07949, M918T) (P07949 29-1114 M918T limits assumed): as the sequence (P07949 29-1114 G810R limits assumed) above, with R782G, M890T counted along it

[4] = target: Proto-oncogene tyrosine-protein kinase receptor Ret (Homo sapiens, UniProt P07949); assay: Inhibition of wild type RET (unknown origin) by FRET-based ZLyte kinase assay
Sequence of Proto-oncogene tyrosine-protein kinase receptor Ret (Homo sapiens, UniProt P07949) (P07949 whole entry): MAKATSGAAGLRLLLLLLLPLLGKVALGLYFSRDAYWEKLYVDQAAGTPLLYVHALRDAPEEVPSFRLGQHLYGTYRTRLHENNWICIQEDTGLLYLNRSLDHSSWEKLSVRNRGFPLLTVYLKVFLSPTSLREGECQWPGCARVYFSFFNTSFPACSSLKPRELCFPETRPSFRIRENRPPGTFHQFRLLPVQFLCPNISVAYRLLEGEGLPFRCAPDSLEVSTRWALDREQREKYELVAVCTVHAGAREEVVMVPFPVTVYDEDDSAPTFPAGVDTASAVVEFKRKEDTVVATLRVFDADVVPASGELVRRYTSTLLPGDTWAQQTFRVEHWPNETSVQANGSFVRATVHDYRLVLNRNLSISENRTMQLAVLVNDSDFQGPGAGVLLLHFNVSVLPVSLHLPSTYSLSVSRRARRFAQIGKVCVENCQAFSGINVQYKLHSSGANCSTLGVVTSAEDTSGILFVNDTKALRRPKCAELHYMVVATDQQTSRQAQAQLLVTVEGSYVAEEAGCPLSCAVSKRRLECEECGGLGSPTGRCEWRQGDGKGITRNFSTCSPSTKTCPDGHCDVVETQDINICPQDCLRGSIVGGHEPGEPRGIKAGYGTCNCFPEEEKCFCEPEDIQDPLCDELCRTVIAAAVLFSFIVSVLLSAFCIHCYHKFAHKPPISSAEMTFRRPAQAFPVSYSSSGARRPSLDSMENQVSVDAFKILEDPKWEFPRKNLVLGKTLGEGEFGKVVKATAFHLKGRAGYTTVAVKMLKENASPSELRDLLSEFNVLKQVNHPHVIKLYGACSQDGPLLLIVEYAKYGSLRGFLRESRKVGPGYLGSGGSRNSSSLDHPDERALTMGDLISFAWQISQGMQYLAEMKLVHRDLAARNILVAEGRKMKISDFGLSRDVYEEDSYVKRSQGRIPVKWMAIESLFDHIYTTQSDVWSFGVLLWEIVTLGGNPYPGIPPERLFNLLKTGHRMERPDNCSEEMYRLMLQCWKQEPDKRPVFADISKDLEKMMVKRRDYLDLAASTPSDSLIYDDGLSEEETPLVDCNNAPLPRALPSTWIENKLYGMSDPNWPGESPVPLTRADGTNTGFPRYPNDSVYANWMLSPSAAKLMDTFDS

[5] = test system: Proto-oncogene tyrosine-protein kinase receptor Ret (Homo sapiens), P07949 [G810R]; assay: Potency index, ratio of Vandetanib IC50 to test compound IC50 for inhibition of RET G810R mutant (unknown origin) by FRET-based ZLyte kinase assay
Sequence of Proto-oncogene tyrosine-protein kinase receptor Ret (Homo sapiens), P07949 [G810R] (P07949 whole entry G810R): as the sequence (P07949 whole entry) above, with G810R counted along it

[6] = test system: Proto-oncogene tyrosine-protein kinase receptor Ret (Homo sapiens), P07949 [V804L]; assay: Potency index, ratio of Vandetanib IC50 to test compound IC50 for inhibition of RET V804L mutant (unknown origin) by FRET-based ZLyte kinase assay
Sequence of Proto-oncogene tyrosine-protein kinase receptor Ret (Homo sapiens), P07949 [V804L] (P07949 whole entry V804L): as the sequence (P07949 whole entry) above, with V804L counted along it

[7] = test system: Proto-oncogene tyrosine-protein kinase receptor Ret (Homo sapiens), P07949 [G810R]; assay: Potency index, ratio of selpercatinib IC50 to test compound IC50 for inhibition of RET G810R mutant (unknown origin) by FRET-based ZLyte kinase assay
BaF3 [8] = assay: Antitumor activity against mouse BaF3 cells harbouring KIF5B-RET G810R mutant xenografted in mouse model assessed as tumor growth inhibition at 10 mg/kg BID measured upto 14 days relative to control; assay type: functional; details: BaF3, 336 h, time <= 14 day, read-out: TGI
BaF3 [9] = assay: Antiproliferative activity against mouse BaF3 cells harbouring CCDC6-RET G810R mutant assessed as inhibition of cell viability; assay type: functional, cell-based
BaF3 [10] = assay: Antiproliferative activity against mouse BaF3 cells harbouring CCDC6-RET wild type assessed as inhibition of cell viability; assay type: functional, cell-based
BaF3 [11] = assay: Antiproliferative activity against mouse BaF3 cells harbouring KIF5B-RET wild type assessed as inhibition of cell viability; assay type: functional, cell-based
BaF3 [12] = assay: Antitumor activity against mouse BaF3 cells harbouring KIF5B-RET-wild type xenografted in mouse model assessed as tumor growth inhibition at 10 mg/kg BID measured upto 14 days relative to control; assay type: functional; details: BaF3, 336 h, time <= 14 day, read-out: TGI
BaF3 [13] = assay: Antiproliferative activity against mouse BaF3 cells harbouring KIF5B-RET G810R mutant assessed as inhibition of cell viability; assay type: functional, cell-based
BaF3 [14] = assay: Antiproliferative activity against mouse BaF3 cells harbouring KIF5B-RET V804L mutant assessed as inhibition of cell viability; assay type: functional, cell-based

Sequence of Proto-oncogene tyrosine-protein kinase receptor Ret (Homo sapiens, UniProt P07949, V804L) (P07949 29-1114 V804L limits assumed): as the sequence (P07949 29-1114 G810R limits assumed) above, with V776L, R782G counted along it

Structure (SMILES) | IC50 [1] | IC50 [2] | IC50 [3] | IC50 [4] | further results
COc1ccc(CN2C3CC2CN(c2ccc(-c4nc(Cl)cc5ncccc45)cn2)C3)cn1 | 57.2 nM | 229 nM | 58.4 nM | 69.3 nM | –
Cn1cc(-c2cc3ncccc3c(-c3ccc(N4CC5CC(C4)N5C(=O)Cc4cccc(Cl)c4)nc3)n2)cn1 | 4 nM | 180 nM | 5.9 nM | 9.1 nM | –
Cn1cc(-c2cc3ncccc3c(-c3ccc(N4CC5CC(C4)N5C(=O)Cc4cc(F)cc(F)c4)nc3)n2)cn1 | 4.7 nM | 221 nM | 6.7 nM | 6.7 nM | –
COc1ccc(CN2C3CC2CN(c2ccc(-c4cccc5ncncc45)cn2)C3)cn1 | 70.4 nM | 307 nM | 91.5 nM | 86.3 nM | –
COc1ccc(CN2C3CC2CN(c2ccc(-c4nc(-c5cc[nH]n5)cc5ncccc45)cn2)C3)cn1 | 55.7 nM | 109 nM | 49.7 nM | 68.2 nM | –
Cn1cc(-c2cc3ncccc3c(-c3ccc(N4CC5CC(C4)N5C(=O)Cc4cccc(F)c4)nc3)n2)cn1 | 2.3 nM | 149 nM | 3 nM | 4.8 nM | –
COc1ccc(CN2C3CC2CN(c2ccc(-c4nc(-c5cnn(C)c5)cc5ncccc45)cn2)C3)cc1 | 3.1 nM | 114 nM | 4.7 nM | 7.6 nM | –
COc1ccc(CN2C3CC2CN(c2ccc(-c4nc(-c5cnn(C)c5)cc5ncccc45)cn2)C3)cc1[N+](=O)[O-] | 95.2 nM | – | 127 nM | 247 nM | –
COc1ccc(CN2C3CC2CN(c2ccc(-c4nc(-c5ccn(C)n5)cc5ncccc45)cn2)C3)cn1 | 21.1 nM | 96.7 nM | 50.4 nM | 49.4 nM | –
COc1ccc(CN2C3CC2CN(c2ccc(-c4nc(-c5ccncc5)cc5ncccc45)cn2)C3)cn1 | 328 nM | – | 215 nM | 166 nM | –
COc1ccc(CN2C3CC2CN(c2ccc(-c4nc(C)cc5ncccc45)cn2)C3)cn1 | 18.6 nM | 416 nM | 33.6 nM | 28.5 nM | –
COc1ccc(CN2C3CC2CN(c2ccc(-c4nc(-c5cnn(C)c5)cc5ncccc45)cn2)C3)cc1N | 86.4 nM | – | 176 nM | 166 nM | –
Cn1cc(-c2cc3ncccc3c(-c3ccc(N4CC5CC(C4)N5Cc4ccc(Cl)nc4)nc3)n2)cn1 | 2.3 nM | 361 nM | 5.1 nM | 9.8 nM | –
COc1ccc(CN2C3CC2CN(c2ccc(-c4cccc5nccnc45)cn2)C3)cn1 | 135 nM | – | 141 nM | 172 nM | –
COc1ccc(CN2C3CC2CN(c2ccc(-c4nccc5ncccc45)cn2)C3)cn1 | 42.2 nM | 186 nM | 35.8 nM | 57.6 nM | Ratio IC50 [5]: 4; Ratio IC50 [6]: 16
Cn1cc(-c2cc3ncccc3c(-c3ccc(N4CC5CC(C4)N5C(=O)CN4CCOCC4)nc3)n2)cn1 | 121 nM | – | 107 nM | 112 nM | –
COc1ccc(CN2C3CC2CN(c2ccc(-c4nc(-c5cnn(C)c5)cc5ncccc45)cn2)C3)cc1Br | 13.7 nM | 107 nM | 17.2 nM | 41.3 nM | –

Structure (SMILES) | IC50 [1] | IC50 [2] | IC50 [3] | IC50 [4] | further results
COc1ccc(CN2C3CC2CN(c2ccc(-c4nc(-c5cnn(C)c5)cc5ncccc45)cn2)C3)cc1C(F)(F)F | 22.6 nM | 116 nM | 14.7 nM | 37.5 nM | –
Cn1cc(-c2cc3ncccc3c(-c3ccc(N4CC5CC(C4)N5C(=O)CC4CCOCC4)nc3)n2)cn1 | 91.4 nM | – | 54.9 nM | 62.2 nM | –
COc1ccc(CN2C3CC2CN(c2ccc(-c4nc(-c5cnn(C)c5)cc5ncccc45)cn2)C3)cn1 | 0.4 nM | 56.2 nM | 1.2 nM | 3.8 nM | Ratio IC50 [7]: 4
Cn1cc(-c2cc3ncccc3c(-c3ccc(N4CC5CC(C4)N5Cc4ccc(F)nc4)nc3)n2)cn1 | 5.6 nM | 237 nM | 9.3 nM | 16.8 nM | –
COc1ccc(CN2C3CC2CN(c2ccc(-c4nc(C5CC5)cc5ncccc45)cn2)C3)cn1 | 12.5 nM | 538 nM | 17.3 nM | 15.7 nM | –
COc1ccc(CN2C3CC2CN(c2ccc(-c4nc(-c5cnn(C)c5)cc5ncccc45)cn2)C3)cc1Cl | 8.5 nM | 85.9 nM | 11.3 nM | 25.1 nM | –
Cc1ccc(CN2C3CC2CN(c2ccc(-c4nc(-c5cnn(C)c5)cc5ncccc45)cn2)C3)cn1 | 14.4 nM | 437 nM | 16.2 nM | 12.5 nM | –
COc1ccc(CN2C3CC2CN(c2ccc(-c4cc(OCC(C)(C)O)cn5ncc(C#N)c45)cn2)C3)cn1 [SELPERCATINIB] | – | – | – | – | inhibition in vivo at 10 mg/kg (BaF3 [8]): 20%; IC50 (BaF3 [9]): 896 nM; IC50 (BaF3 [10]): 9.5 nM; IC50 (BaF3 [11]): 8.2 nM; inhibition in vivo at 10 mg/kg (BaF3 [12]): 89%; IC50 (BaF3 [13]): 2170 nM; IC50 (BaF3 [14]): 17.8 nM
Cn1cc(-c2cc3ncccc3c(-c3ccc(N4CC5CC(C4)N5Cc4cccnc4)nc3)n2)cn1 | 41.1 nM | 371 nM | 33.5 nM | 26.7 nM | –
COc1ccc(CN2C3CC2CN(c2ccc(-c4nc(-c5ccc(F)cc5)cc5ncccc45)cn2)C3)cn1 | 517 nM | – | 408 nM | 242 nM | –
COc1ccc(CN2C3CC2CN(c2ccc(-c4nc(-c5cn[nH]c5)cc5ncccc45)cn2)C3)cn1 | 1.1 nM | 69.1 nM | 6.5 nM | 5.9 nM | Ratio IC50 [7]: 4
COc1ccc(CN2C3CC2CN(c2ccc(-c4cccc5cnccc45)cn2)C3)cn1 | 786 nM | – | 615 nM | 591 nM | –
COc1ccc(CN2C3CC2CN(c2ccc(-c4cccc5ncccc45)cn2)C3)cn1 | 285 nM | – | 304 nM | 198 nM | –
COc1ccc(CN2C3CC2CN(c2ccc(-c4cccc5c4OCCO5)cn2)C3)cn1 | > 1000 nM | – | > 1000 nM | > 1000 nM | –
COc1ccc(CC(=O)N2C3CC2CN(c2ccc(-c4nc(-c5cnn(C)c5)cc5ncccc45)cn2)C3)cn1 | 2.6 nM | 132 nM | 4.9 nM | 5.7 nM | –
COc1ccc(CN2C3CC2CN(c2ccc(-c4nc(-c5cnn(C)c5)cc5ncccc45)cn2)C3)cc1F | 0.3 nM | 37.8 nM | 0.6 nM | 5.5 nM | Ratio IC50 [7]: 6
